Source: patent US20200261576A1, “APOPTOTIC CELL-MEDIATED INDUCTION OF ANTIGEN SPECIFIC REGULATORY T-CELLS FOR THE THERAPY OF AUTOIMMUNE DISEASES IN ANIMALS AND HUMANS” (The United States of America, as represented by the …, priority 2013, published 2020)

Assays:
splenocytes = experiment: Antigen-recall T cell proliferation and cytokine production of splenocytes from SJL EAE mice; type: cell-based; settings: therapy model; splenocytes restimulated with pPLP
Procedure: Cytokine assays. Splenocytes were cultured at 37° C. in 5% CO2 for 2-3 days with either soluble CD3-specific antibody (anti-CD3) (0.5 μg/ml) or MT (heat-killed M. tuberculosis, H37RA, DIFCO) (50 μg/ml) or peptides (pMOG, pPLP) (0-50 μg/ml as indicated). Cytokines were quantified in culture supernatants by ELISA; TNF-α, IL-6, and IFN-γ (BioLegend) and IL-17 (eBioscience). EAE induction, scoring, analysis and in vitro cell cultures. Peptide-induced EAE was induced in SJL mice and C57BL/6 mice as previously reported^11,20. Individual mice were observed daily and clinical scores were assessed on a 0-5 scale as follows: 0, no abnormality; 1, limp tail or hind limb weakness; 2, limp tail and hind limb weakness; 3, hind limb paralysis; 4, hind limb paralysis and forelimb weakness; and 5, moribund. […] Radioactive incorporation was counted using a flatbed β-counter (Wallac). […]

SJL mice = experiment: Prevention of EAE in SJL mice (treatment before immunization); type: in vivo
Procedure: Antibodies used for in vivo. Anti-CD4 (clone Gk1.5), anti-CD8 antibody (clone 53-6.72), anti-TGFβ antibody (clone ID11) and mouse IgG1 (clone MOPC-21) were purchased from Bio X cell. Anti-CD20 antibody (clone 5D2) was a gift from Genentech. T cell depletion studies in EAE disease models. For EAE prevention studies SJL/J mice were either untreated or treated with CD4− (100 μg/mouse) and CD8− (50 μg/mouse) specific antibody (T cell depletion antibody). Some mice were immediately injected i.p. with pPLP or pOVA (25 μg/mouse) or PBS every other day for 16 days. All mice were immunized with pPLP and CFA (day 0). For EAE treatment studies, SJL mice were treated with CD4- and CD8-specific antibody and 5 μg of pPLP, pOVA or PBS i.p. every other day from day 12 to day 26 following immunization with pPLP (day 0). For EAE prevention studies, SJL mice were treated with CD4- and CD8-specific antibody at day −21, and 25 μg of pPLP, pOVA or PBS i.p. every other day from day −18 to day −2 before immunization with pPLP (day 0). In C57BL/6 mice, same T cell depletion regimen was utilized but pMOG (10 μg mouse) was administered via i.p. In some mice, anti-TGFβ or isotype control antibody (mIgG1) (200 μg/mice each day) were injected i.p. one day after T cell depletion. […] Mice were monitored for clinical score of disease and sacrificed at indicated time points. […]

proteolipid protein peptide PLP139-151 (HSLGKWLGHPDKF; listed as Mus musculus)
pPLP-specific T cell proliferation and inflammatory cytokine production (splenocytes): no reduction | EAE clinical disease, prevention (SJL mice): failed to prevent EAE
